Values quoted from earlier work in PubChem BioAssay AID1259409 (Chemical Carcinogenesis Research Information System (CCRIS), 2018).

Test system: rodent chemically induced tumor inhibition, incidence and multiplicity
Assay: CCRIS tumor inhibitor studies

For `O=P(O)(O)OC1C(OP(=O)(O)O)C(OP(=O)(O)O)C(OP(=O)(O)O)C(OP(=O)(O)O)C1OP(=O)(O)O` (stereo not given), the “tumour outcome (control, treated, inhibition, significance)” value (Carcinogen: 2,2'-DIHYDROXY-DI-N-PROPYLNITROSAMINE, 53609-64-6, N-ETHYL-N-HYDROXYETHYLNITROSAMINE, 13147-25-6, 3,2'-DIMETHYL-4-AMINO-, Carcinogen: 2,2'-DIHYDROXY-DI-N-PROPYLNITROSAMINE, 53609-64-6, N-ETHYL-N-HYDROXYETHYLNITROSAMINE, 13147-25-6, 3,2'-DIMETHYL-4-AMINO-, Dose [Inhibitor]: 0, 2% IN DIET FOR 32 WK BEGINNING 1 WK POST CARCINOGEN TREATMENT (STUDY DURATION: 36 WK), Route [Inhibitor]: ORAL, Species: RAT, Strain/Sex: F344/MALE, Target Tissue: Type of Lesion: LUNG: CARCINOMA, Dose [Carcinogen]: 1000 MG/KG BW DHPN TWICE, 1500 MG/KG BW EHEN TWICE, 75 MG/KG BW 3 TIMES ADMINISTERED OVER FIRST 3 WK, Promoter: NONE USED) is listed as 1/14 (7%), 3/12 (25%), -257%, not significant, the “tumour outcome (control, treated, inhibition, significance)” value (Carcinogen: 2,2'-DIHYDROXY-DI-N-PROPYLNITROSAMINE, 53609-64-6, N-ETHYL-N-HYDROXYETHYLNITROSAMINE, 13147-25-6, 3,2'-DIMETHYL-4-AMINO-, Carcinogen: 2,2'-DIHYDROXY-DI-N-PROPYLNITROSAMINE, 53609-64-6, N-ETHYL-N-HYDROXYETHYLNITROSAMINE, 13147-25-6, 3,2'-DIMETHYL-4-AMINO-, Dose [Inhibitor]: 0, 2% IN DIET FOR 32 WK BEGINNING 1 WK POST CARCINOGEN TREATMENT (STUDY DURATION: 36 WK), Route [Inhibitor]: ORAL, Species: RAT, Strain/Sex: F344/MALE, Target Tissue: Type of Lesion: THYROID GLAND: ADENOMA, Dose [Carcinogen]: 1000 MG/KG BW DHPN TWICE, 1500 MG/KG BW EHEN TWICE, 75 MG/KG BW 3 TIMES ADMINISTERED OVER FIRST 3 WK, Promoter: NONE USED) is listed as 3/14 (21%), 3/12 (25%), -19%, not significant and the “tumour outcome (control, treated, inhibition, significance)” value (Carcinogen: 2,2'-DIHYDROXY-DI-N-PROPYLNITROSAMINE, 53609-64-6, N-ETHYL-N-HYDROXYETHYLNITROSAMINE, 13147-25-6, 3,2'-DIMETHYL-4-AMINO-, Carcinogen: 2,2'-DIHYDROXY-DI-N-PROPYLNITROSAMINE, 53609-64-6, N-ETHYL-N-HYDROXYETHYLNITROSAMINE, 13147-25-6, 3,2'-DIMETHYL-4-AMINO-, Dose [Inhibitor]: 0, 2% IN DIET FOR 32 WK BEGINNING 1 WK POST CARCINOGEN TREATMENT (STUDY DURATION: 36 WK), Route [Inhibitor]: ORAL, Species: RAT, Strain/Sex: F344/MALE, Target Tissue: Type of Lesion: URINARY BLADDER: CARCINOMA, Dose [Carcinogen]: 1000 MG/KG BW DHPN TWICE, 1500 MG/KG BW EHEN TWICE, 75 MG/KG BW 3 TIMES ADMINISTERED OVER FIRST 3 WK, Promoter: NONE USED) is listed as 1/14 (7%), 2/12 (17%), -143%, not significant. The outcome (Carcinogen: 2,2'-DIHYDROXY-DI-N-PROPYLNITROSAMINE, 53609-64-6, N-ETHYL-N-HYDROXYETHYLNITROSAMINE, 13147-25-6, 3,2'-DIMETHYL-4-AMINO-, Carcinogen: 2,2'-DIHYDROXY-DI-N-PROPYLNITROSAMINE, 53609-64-6, N-ETHYL-N-HYDROXYETHYLNITROSAMINE, 13147-25-6, 3,2'-DIMETHYL-4-AMINO-, Dose [Inhibitor]: 0, 2% IN DIET FOR 32 WK BEGINNING 1 WK POST CARCINOGEN TREATMENT (STUDY DURATION: 36 WK), Route [Inhibitor]: ORAL, Species: RAT, Strain/Sex: F344/MALE, Target Tissue: Type of Lesion: URINARY BLADDER: PAPILLOMA, Dose [Carcinogen]: 1000 MG/KG BW DHPN TWICE, 1500 MG/KG BW EHEN TWICE, 75 MG/KG BW 3 TIMES ADMINISTERED OVER FIRST 3 WK, Promoter: NONE USED) was 0/14 (0%), 6/12 (50%), -100%, p<0.01, the “tumour outcome (control, treated, inhibition, significance)” value (Carcinogen: 2,2'-DIHYDROXY-DI-N-PROPYLNITROSAMINE, 53609-64-6, N-ETHYL-N-HYDROXYETHYLNITROSAMINE, 13147-25-6, 3,2'-DIMETHYL-4-AMINO-, Carcinogen: 2,2'-DIHYDROXY-DI-N-PROPYLNITROSAMINE, 53609-64-6, N-ETHYL-N-HYDROXYETHYLNITROSAMINE, 13147-25-6, 3,2'-DIMETHYL-4-AMINO-, Dose [Inhibitor]: 0, 2% IN DIET FOR 32 WK BEGINNING 1 WK POST CARCINOGEN TREATMENT (STUDY DURATION: 36 WK), Route [Inhibitor]: ORAL, Species: RAT, Strain/Sex: F344/RAT, Target Tissue: Type of Lesion: LARGE INTESTINE: ADENOMA, Dose [Carcinogen]: 1000 MG/KG BW DHPN TWICE, 1500 MG/KG BW EHEN TWICE, 75 MG/KG BW 3 TIMES ADMINISTERED OVER FIRST 3 WK, Promoter: NONE USED) was 7/14 (50%), 5/12 (42%), 16%, not significant and the “tumour outcome (control, treated, inhibition, significance)” value (Carcinogen: 7,12-DIMETHYLBENZ(A)ANTHRACENE, 57-97-6, Dose [Inhibitor]: 0, 1 MG IN 100 µL ACETONE IMMEDIATELY AFTER CARCINOGEN DOSE 2/WK FOR 30 WK (STUDY DURATION: 30 WK), Route [Inhibitor]: DERMAL, Species: MOUSE, Strain/Sex: SWISS/FEMALE, Target Tissue: Type of Lesion: SKIN: TUMOR, Dose [Carcinogen]: 5 UG IN 100 µL ACETONE 2/WK FOR 30 WK) was 8/8 (100%), 4/14 (26%), 74%, not calculated. For the same molecule, the “tumour outcome (control, treated, inhibition, significance)” value (Carcinogen: 7,12-DIMETHYLBENZ(A)ANTHRACENE, 57-97-6, Dose [Inhibitor]: 0, 5 MG IN 100 µL ACETONE IMMEDIATELY AFTER CARCINOGEN DOSE 2/WK FOR 30 WK (STUDY DURATION: 30 WK), Route [Inhibitor]: DERMAL, Species: MOUSE, Strain/Sex: SWISS/FEMALE, Target Tissue: Type of Lesion: SKIN: TUMOR, Dose [Carcinogen]: 5 UG IN 100 µL ACETONE 2/WK FOR 30 WK) was 8/8 (100%), 1/14 (6.6%), 93%, not calculated, the “tumour outcome (control, treated, inhibition, significance)” value (Carcinogen: 7,12-DIMETHYLBENZ(A)ANTHRACENE, 57-97-6, Dose [Inhibitor]: 0, 100 UG IN 100 µL ACETONE IMMEDIATELY AFTER CARCINOGEN DOSE 2/WK FOR 30 WK (STUDY DURATION: 30 WK), Route [Inhibitor]: DERMAL, Species: MOUSE, Strain/Sex: SWISS/FEMALE, Target Tissue: Type of Lesion: SKIN: TUMOR, Dose [Carcinogen]: 5 UG IN 100 µL ACETONE 2/WK FOR 30 WK) was 8/8 (100%), 5/13 (40%), 60%, not calculated and the “tumour outcome (control, treated, inhibition, significance)” value (Carcinogen: 7,12-DIMETHYLBENZ[A]ANTHRACENE [57-97-6], Dose [Inhibitor]: 2% IN DIET FOR 35 WK BEGINNING 1 WK POST LAST CARCINOGEN DOSE (STUDY DURATION: 35 WK), Route [Inhibitor]: ORAL, Species: RAT, Strain/Sex: SPRAGUE-DAWLEY/FEMALE, Target Tissue: Type of Lesion: MAMMARY GLAND: CARCINOMA, Dose [Carcinogen]: 50 MG/KG BW ONCE (STUDY DURATION: 36 WK), Promoter: NONE) was 14/15 (93%), 14/15 (93%), 0%, not significant. For the same molecule, the “tumour outcome (control, treated, inhibition, significance)” value (Carcinogen: 7,12-DIMETHYLBENZ[A]ANTHRACENE [57-97-6], Dose [Inhibitor]: 2% IN DIET FOR 35 WK BEGINNING 1 WK POST LAST CARCINOGEN DOSE (STUDY DURATION: 35 WK), Route [Inhibitor]: ORAL, Species: RAT, Strain/Sex: SPRAGUE-DAWLEY/FEMALE, Target Tissue: Type of Lesion: MAMMARY GLAND: FIBROADENOMA, Dose [Carcinogen]: 50 MG/KG BW ONCE (STUDY DURATION: 36 WK), Promoter: NONE) was 3/15 (20%), 4/15 (27%), -35%, not significant.
